Measured values as given in the NIST ThermoML archive (doi:10.1021/je500389t).

Assay: xn = mol fraction of the nth substance listed
Conditions: 101 kPa, Liquid; for viscosity: Capillary tube (Ostwald / Ubbelohde) method; for mass density: Pycnometric method

COCCOCCOC [2,5,8-trioxanonane] + O
Conditions	mass density, 293.15 K [kg/m3]	mass density, 298.15 K [kg/m3]	mass density, 303.15 K [kg/m3]	mass density, 308.15 K [kg/m3]	mass density, 313.15 K [kg/m3]	viscosity, 293.15 K [mPa·s]	viscosity, 298.15 K [mPa·s]	viscosity, 303.15 K [mPa·s]	viscosity, 308.15 K [mPa·s]	viscosity, 313.15 K [mPa·s]
x1 = 0.0147	1000.9	998.8	997.5	995.3	994.3	1.39	1.22	1.06	0.939	0.865
x1 = 0.0325	1004.6	1002.7	1000.2	998.1	995.2	1.9	1.66	1.41	1.23	1.09
x1 = 0.0548	1008.4	1005.5	1002.4	999.6	995.9	2.56	2.2	1.82	1.576	1.41
x1 = 0.0822	1010.3	1006.8	1003.1	999.7	995.8	3.21	2.73	2.22	1.91	1.7
x1 = 0.1183	1009.2	1004.8	1000.3	996.5	992.1	3.65	3.1	2.51	2.13	1.88
x1 = 0.1676	1003.2	998.7	994.1	990.1	985.4	3.63	3.09	2.53	2.14	1.9
x1 = 0.2384	993.6	988.3	983.9	979.3	974.5	3.12	2.7	2.24	1.92	1.72
x1 = 0.2866	987.3	982	977.5	973.2	968	2.75	2.42	2.01	1.75	1.58
x1 = 0.3468	980.1	974.9	970.4	965.6	960.8	2.36	2.1	1.77	1.5	1.42
x1 = 0.4495	970.7	965.4	960.9	956.2	951.1	1.97	1.77	1.47	1.31	1.21
x1 = 0.5426	963.6	958.5	953.8	949.2	943.8	1.61	1.47	1.27	1.14	1.06
x1 = 0.699	955.5	950.2	945.4	941	935.7	1.32	1.2	1.08	1	0.941
x1 = 0.7996	951.2	945.9	941.2	936.4	931.4	1.21	1.11	0.997	0.902	0.851
x1 = 0.8928	948.3	942.9	938.1	933.3	928.2	1.14	1.05	0.955	0.862	0.817
x1 = 1	945.2	939.8	935	930.7	925.4	1.09	0.998	0.914	0.834	0.785
